Experimental findings from US9540323B2 (BRISTOL-MYERS SQUIBB COMPANY, priority 2012, dated 2017) are described below.

In assay [1] the target is cloned human P2Y1 receptors (Homo sapiens (Human), UniProt P47900). The assay can be described thus: Binding Assay B - Scintillation Proximity Assay (SPA) for P2Y1 binding, [33P] 2MeS-ADP. Particulars: SPA, 0.3 nM [33P] 2MeS-ADP, Cheng-Prusoff; read-out: P2Y1 Ki (nM) using binding assay B. As to the method:
Binding Assay B—Scintillation Proximity Assay (SPA) for P2Y1 Binding
A SPA membrane binding assay was used to identify inhibitors of [^33P] […] Reactions were allowed to proceed to completion at room temperature for 1 hour followed by centrifugation of the plate for 5 min. About 40 μL of the aqueous solution was aspirated. Plates were sealed and the [^33P]
On the technique in general: Scintillation proximity formats need no separation of bound from free tracer.

Assay [2] deals with human platelet rich plasma (PRP). The assay can be described thus: ADP induced platelet aggregation assay. To be noted: Homo sapiens, Platelet, 5 min, read-out: PA IC50 (μM) @ 10 μM ADP, human PRP, 10 μM ADP, AUC at 5 minute.

cloned human P2Y1 receptors, sequence (P47900 whole entry): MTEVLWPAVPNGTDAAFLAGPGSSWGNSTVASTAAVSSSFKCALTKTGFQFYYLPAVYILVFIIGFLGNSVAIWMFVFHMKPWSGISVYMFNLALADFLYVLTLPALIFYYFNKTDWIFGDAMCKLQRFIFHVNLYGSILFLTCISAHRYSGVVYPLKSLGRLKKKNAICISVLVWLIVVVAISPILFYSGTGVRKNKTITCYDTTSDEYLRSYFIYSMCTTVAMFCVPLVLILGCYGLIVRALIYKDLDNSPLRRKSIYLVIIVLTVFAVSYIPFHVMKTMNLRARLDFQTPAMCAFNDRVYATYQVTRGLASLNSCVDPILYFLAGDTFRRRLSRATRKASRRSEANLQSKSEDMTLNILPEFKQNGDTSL

Consider `CC1(C)CN(c2c(F)cccc2NC(=O)Nc2ccc(F)cc2F)c2c(O)ccc(C(F)(F)F)c21` [Example 62, 1-(2,4-Difluorophenyl)-3-(3-fluoro-2-(7-hydroxy-3,3-dimethyl-4-(trifluoromethyl)indolin-1-yl)phenyl)urea], for which the Ki (in general, a measure of affinity in units of concentration, obtained from inhibition or displacement) in assay [1] is 14.6 nM. Further, the IC50 (commonly the midpoint of a concentration-inhibition curve) in assay [2] worked out at 0.75 µM.

Turning to `CC1(C)CN(c2ccc(F)cc2NC(=O)Nc2nc3ccc(F)cc3s2)c2c(O)ccc(C(F)(F)F)c21` [Example 63, 1-(5-Fluoro-2-(7-hydroxy-3,3-dimethyl-4-(trifluoromethyl)indolin-1-yl)phenyl)-3-(6-fluorobenzo[d]thiazol-2-yl)urea], the Ki in assay [1] is 20.8 nM. For the same compound, the IC50 in assay [2] worked out at 0.18 µM.

Take `CC1(C)CN(c2cc(F)ccc2NC(=O)Nc2nc3ccc(F)cc3s2)c2c(O)ccc(C(F)(F)F)c21` [Example 64, 1-(4-Fluoro-2-(7-hydroxy-3,3-dimethyl-4-(trifluoromethyl)indolin-1-yl)phenyl)-3-(6-fluorobenzo[d]thiazol-2-yl)urea]: the Ki in assay [1] came out at 13 nM. In assay [2], the IC50 came out at 0.21 µM.

For the compound `CC1(C)CN(c2ccccc2NC(=O)Nc2ccc(OC(F)(F)F)cc2)c2c(O)c(F)cc(Cl)c21` [Example 65, 1-(2-(4-Chloro-6-fluoro-7-hydroxy-3,3-dimethylindolin-1-yl)phenyl)-3-(4-(trifluoromethoxy)phenyl)urea], the inhibition constant Ki in assay [1] was 14.1 nM. Also, the IC50 in assay [2] was determined as 0.83 µM.

Consider `CC1(C)CN(c2ccccc2NC(=O)Nc2nc3ccc(Cl)cc3s2)c2c(O)c(F)cc(Br)c21` [Example 66, 1-(2-(4-Bromo-6-fluoro-7-hydroxy-3,3-dimethylindolin-1-yl)phenyl)-3-(6-chlorobenzo[d]thiazol-2-yl)urea], for which the Ki in assay [1] is 21.3 nM. Moreover, in assay [2], the IC50 was found to be 0.75 µM.

With `CC1(C)CN(c2ccccc2NC(=O)Nc2nc3ccc(F)cc3s2)c2c(O)cc(F)c(Br)c21` [Example 67, 1-(2-(4-Bromo-5-fluoro-7-hydroxy-3,3-dimethylindolin-1-yl)phenyl)-3-(6-fluorobenzo[d]thiazol-2-yl)urea], the Ki in assay [1] amounted to 13.8 nM. In addition, the IC50 in assay [2] was 0.77 µM.

Turning to `CC1(C)CN(c2ccccc2NC(=O)Nc2csc(Cl)n2)c2c(O)cc(F)c(Br)c21` [Example 68, 1-(2-(4-Bromo-5-fluoro-7-hydroxy-3,3-dimethylindolin-1-yl)phenyl)-3-(2-chlorothiazol-4-yl)urea], the Ki in assay [1] was 7.5 nM. Further, the IC50 in assay [2] was found to be 0.6 µM.

Turning to `CC1(C)CN(c2ccccc2NC(=O)Nc2ccc(OC(F)(F)F)cc2)c2c(O)c(F)cc(Br)c21` [Example 69, 1-(2-(4-Bromo-6-fluoro-7-hydroxy-3,3-dimethylindolin-1-yl)phenyl)-3-(4-(trifluoromethoxy)phenyl)urea], in assay [1], the Ki was 18.1 nM. Further, in assay [2], the IC50 turned out to be 0.83 µM.

As to `CC1(C)CN(c2ccccc2NC(=O)Nc2nc3ccc(Cl)cc3s2)c2c(O)cc(F)c(Br)c21` [Example 70, 1-(2-(4-Bromo-5-fluoro-7-hydroxy-3,3-dimethylindolin-1-yl)phenyl)-3-(6-chlorobenzo[d]thiazol-2-yl)urea], the inhibition constant Ki in assay [1] was 31.3 nM. Besides, the IC50 in assay [2] was 0.78 µM.

On to `CCC1(CC)CN(c2ccccc2NC(=O)Nc2ccc(OC(F)(F)F)cc2)c2c(O)ccc(C)c21` [Example 71, 1-(2-(3,3-Diethyl-7-hydroxy-4-methylindolin-1-yl)phenyl)-3-(4-(trifluoromethoxy)phenyl)urea], for which, in assay [1], the Ki turned out to be 6.8 nM. For the same compound, in assay [2], the IC50 turned out to be 0.5 µM.

As for `CC(C)(C)Sc1ccc(O)c2c1C(C)(C)CN2c1ccccc1NC(=O)Nc1ccc(OC(F)(F)F)cc1` [Example 72, 1-(2-(4-(tert-Butylthio)-7-hydroxy-3,3-dimethylindolin-1-yl)phenyl)-3-(4-(trifluoromethoxy)phenyl)urea], the inhibition constant (Ki) in assay [1] was 32.2 nM. The IC50 in assay [2] turned out to be 1.05 µM.

For the compound `CCC1(CC)CN(c2ccccc2NC(=O)Nc2ccc(OC(F)(F)F)cc2)c2c(O)ccc(C=O)c21` [Example 73, 1-(2-(3,3-Diethyl-4-formyl-7-hydroxyindolin-1-yl)phenyl)-3-(4-(trifluoromethoxy)phenyl)urea], the Ki in assay [1] amounted to 4.5 nM. For the same compound, the IC50 in assay [2] was 0.9 µM.

`CCOC(=O)C1(C)CN(c2ccccc2NC(=O)Nc2ccc(OC(F)(F)F)cc2)c2c(O)ccc(Cl)c21` (centres unmarked) [Example 74, Ethyl 4-chloro-7-hydroxy-3-methyl-1-(2-(3-(4-(trifluoromethoxy)phenyl)ureido)phenyl)indoline-3-carboxylate]: the Ki in assay [1] was found to be 19.8 nM. Moreover, the IC50 in assay [2] was found to be 3.11 µM.

For `CCOC(=O)C1(C)CN(c2ccccc2NC(=O)Nc2csc(Cl)n2)c2c(O)ccc(Cl)c21` (centres unmarked) [Example 75, Ethyl 4-chloro-1-(2-(3-(2-chlorothiazol-4-yl)ureido)phenyl)-7-hydroxy-3-methylindoline-3-carboxylate], the Ki in assay [1] worked out at 7.1 nM. Also, in assay [2], the IC50 came out at 0.56 µM.

Take `CCOC(=O)C1(C)CN(c2ccccc2NC(=O)Nc2nc3ccc(F)cc3s2)c2c(O)ccc(Cl)c21` (centres unmarked) [Example 76, Ethyl 4-chloro-1-(2-(3-(6-fluorobenzo[d]thiazol-2-yl)ureido)phenyl)-7-hydroxy-3-methylindoline-3-carboxylate]: the Ki in assay [1] worked out at 11.5 nM. The half-maximal inhibitory concentration (IC50) in assay [2] turned out to be 0.4 µM.

`CCOC(=O)C1(C)CN(c2ccccc2NC(=O)Nc2nc3ccc(Cl)nc3s2)c2c(O)ccc(Cl)c21` (centres unmarked) [Example 77, Ethyl 4-chloro-1-(2-(3-(5-chlorothiazolo[5,4-b]pyridin-2-yl)ureido)phenyl)-7-hydroxy-3-methylindoline-3-carboxylate]: in assay [1], the Ki amounted to 12.9 nM. In assay [2], the IC50 was 0.61 µM.

Take `CC1(CC(F)(F)F)CN(c2ccccc2NC(=O)Nc2ccc(OC(F)(F)F)cc2)c2c(O)ccc(Cl)c21` (centres unmarked) [Example 78, 1-(2-(4-Chloro-7-hydroxy-3-methyl-3-(2,2,2-trifluoroethyl)indolin-1-yl)phenyl)-3-(4-(trifluoromethoxy)phenyl)urea]: the inhibition constant (Ki) in assay [1] was found to be 7.7 nM. In addition, the IC50 in assay [2] worked out at 2.92 µM.

As for `CC1(C)CN(c2ccccc2NC(=O)Nc2ccc(OC(F)(F)F)cc2)c2c(O)c(F)cc(CC(F)(F)F)c21` [Example 79, 1-(2-(6-Fluoro-7-hydroxy-3,3-dimethyl-4-(2,2,2-trifluoroethyl)indolin-1-yl)phenyl)-3-(4-(trifluoromethoxy)phenyl)urea], the Ki in assay [1] worked out at 9.7 nM. Besides, the IC50 in assay [2] came out at 0.83 µM.

As for `COC(=O)c1ccc(O)c2c1C(C)(C)CN2c1ccccc1NC(=O)Nc1ccc(OC(F)(F)F)cc1` [Example 80, Methyl 7-hydroxy-3,3-dimethyl-1-(2-(3-(4-(trifluoromethoxy)phenyl)ureido)phenyl)indoline-4-carboxylate], in assay [1], the Ki is 9 nM. The IC50 in assay [2] is 0.84 µM.

Take `CCOC(=O)c1ccc(O)c2c1C(C)(C)CN2c1ccccc1NC(=O)Nc1ccc(OC(F)(F)F)cc1` [Example 81, Ethyl 7-hydroxy-3,3-dimethyl-1-(2-(3-(4-(trifluoromethoxy)-phenyl)-ureido)phenyl)indoline-4-carboxylate]: the Ki in assay [1] stood at 8.6 nM. The IC50 in assay [2] was 0.91 µM.

On to `CC1(C)CN(c2ccccc2NC(=O)Nc2ccc(OC(F)(F)F)cc2)c2c(O)ccc(-c3nc4ccccc4o3)c21` [Example 82, 1-(2-(4-(Benzo[d]oxazol-2-yl)-7-hydroxy-3,3-dimethylindolin-1-yl)phenyl)-3-(4-(trifluoromethoxy)phenyl)urea], for which the Ki in assay [1] turned out to be 15.8 nM. In assay [2], the IC50 was found to be 0.99 µM.

Take `CC1(C)CN(c2ccccc2NC(=O)Nc2ccc(OC(F)(F)F)cc2)c2c(O)ccc(-c3nc4ccccc4s3)c21` [Example 83]: the Ki in assay [1] came to 14.7 nM. In addition, the IC50 in assay [2] was 0.86 µM.

Turning to `CC1(C)CN(c2ccccc2NC(=O)Nc2ccc(OC(F)(F)F)cc2)c2c(O)ccc(-c3nc4cc(Cl)ccc4o3)c21` [Example 84, 1-(2-(4-(5-Chlorobenzo[d]oxazol-2-yl)-7-hydroxy-3,3-dimethylindolin-1-yl)phenyl)-3-(4-(trifluoromethoxy)phenyl)urea], the Ki in assay [1] is 16.7 nM. In addition, the IC50 in assay [2] came out at 0.58 µM.

For the compound `CC1(C)CN(c2ccccc2NC(=O)Nc2ccc(OC(F)(F)F)cc2)c2c(O)ccc(-c3nc4cc(Cl)ccc4s3)c21` [Example 85, 1-(2-(4-(5-Chlorobenzo[d]thiazol-2-yl)-7-hydroxy-3,3-dimethylindolin-1-yl)phenyl)-3-(4-(trifluoromethoxy)phenyl)urea], the Ki in assay [1] was 23.5 nM. The IC50 in assay [2] was 0.38 µM.

Take `Cc1nnc(-c2ccc(O)c3c2C(C)(C)CN3c2ccccc2NC(=O)Nc2ccc(OC(F)(F)F)cc2)o1` [Example 86, 1-(2-(7-Hydroxy-3,3-dimethyl-4-(5-methyl-1,3,4-oxadiazol-2-yl)indolin-1-yl)phenyl)-3-(4-(trifluoromethoxy)phenyl)urea]: the Ki in assay [1] was found to be 22.2 nM. In addition, the IC50 in assay [2] stood at 5 µM.

`CC1(C)CN(c2ccccc2NC(=O)Nc2ccc(OC(F)(F)F)cc2)c2c(O)ccc(-c3nc4cc(C(F)(F)F)ccc4s3)c21` [Example 87]: in assay [1], the Ki is 42.9 nM. Further, the IC50 in assay [2] was determined as 0.27 µM.

Turning to `Cn1c(-c2ccc(O)c3c2C(C)(C)CN3c2ccccc2NC(=O)Nc2ccc(OC(F)(F)F)cc2)nc2ccccc21` [Example 88, 1-(2-(7-Hydroxy-3,3-dimethyl-4-(1-methyl-1H-benzo[d]imidazol-2-yl)indolin-1-yl)phenyl)-3-(4-(trifluoromethoxy)phenyl)urea], the Ki in assay [1] is 39.7 nM. For the same compound, the IC50 in assay [2] was 4.15 µM.

Take `CC1(C)CN(c2ccccc2NC(=O)Nc2ccc(OC(F)(F)F)cc2)c2c(O)ccc(-c3nc4cccnc4o3)c21` [Example 89, 1-(2-(7-Hydroxy-3,3-dimethyl-4-(oxazolo[5,4-b]pyridin-2-yl)indolin-1-yl)phenyl)-3-(4-(trifluoromethoxy)phenyl)urea]: in assay [1], the Ki is 12.3 nM. The IC50 in assay [2] was 0.99 µM.
